One molecule from paper PMC7933091 (2021) can be followed below.

The test system of the assay is SC-34 (DNA, aptamer) ACCTTAAGTGGGGTTCGGGTGGAGTTTATGGGGT
As to the kind of experiment: ITC, single-site model. Particulars: 20 mM NaCl, 0.5 mM MgCl2; 10 mM Tris, pH 7.4, 23 °C; same value in low-salt PBS.

As for `CCC[C@H](C(=O)c1ccc2c(c1)OCO2)N1CCCC1`, the KD was ~ 300 nM.
